From US20130089724A1, “NOVEL ORGANIC UV ABSORBERS” (COMMISSARIAT A L'ENERGIE ATOMIQUE ET AUX ENERGIES …, priority 2010, published 2013)

Legend:
Format in all cases: physicochemical
[1] = accelerated aging test of polyurethane varnish deposited layer, 550 W/m^2, 72 h; conditions: 50 mg per g polyurethane solution
Experimental: A curing agent is added to a solution of polyurethane (70% by weight) in a xylene/toluene mixture.
A molecule of nonfunctionalized pyrene (CAS No. 129000) is added in a proportion of 50 mg of pyrene per gram of polyurethane solution.
The mixture is deposited by “knife coating” on a glass slide transparent to UV-A radiation.
After drying in ambient air, this slide is subjected to an accelerated aging test in a Suntest CPS chamber from Atlas. The aging conditions are as follows: irradiance at 550 W/m^2, xenon arc lamp equipped with a “sheet glass” filter which cuts off the UV radiation below 310 nm, exposure time 72 h.
The pyrene not in accordance with the invention is obviously not stable to light.

[2] = accelerated aging test (Suntest CPS) of silica sol-gel deposited layer, 620 W/m^2, 24 h; conditions: 0.5 mg/ml solution, xenon arc 620 W/m^2, cut-off 310 nm
Experimental: A silica sol-gel solution is formed by the hydrolysis of a silicon alkoxide (tetraethoxysilane, CAS No. 78-10-4) in the presence of ethanol and hydrochloric acid.
A 0.5 mg/ml aqueous pyrene-1-carboxylic solution is formed with a molar equivalent of sodium hydroxide.
One volume of the pyrene-1-carboxylic solution is mixed with an equivalent volume of the sol-gel solution: the mixture is deposited by “knife coating” on a microscope slide transparent to UV-A radiation.
After drying in ambient air, this slide is subjected to an accelerated aging test in a Suntest CPS chamber from Atlas.
The aging conditions are as follows: irradiance at 620 W/m^2, xenon arc lamp equipped with a “sheet glass” filter which cuts off the UV radiation below 310 nm, exposure time 24 h.
FIG. 1 reports the UV transmission spectra of the silica sol-gel deposited layer in which the pyrene-1-carboxylic is incorporated, before/after exposure.
The “light” stability of the pyrene-1-carboxylic compound is thus confirmed.

[3] = accelerated aging test of colored textile behind sol-gel filter layer (NF EN ISO 105-B2)
Experimental: A sol-gel deposited layer is produced on a glass slide under the same conditions as example 1 above, with a starting 5 mg/ml solution of pyrene-1-carboxylic.
This sample is used as filter affixed to a colored textile.
A glass slide not treated with this deposited layer is also affixed to another sample of the same colored textile for the purposes of reference sample.
The two samples are exposed to an accelerated aging test in a Suntest CPS chamber from Atlas. The aging conditions are as follows and in accordance with the standard NF EN ISO 105-B2: irradiance at 550 W/m^2, xenon arc lamp equipped with a “sheet glass” filter which cuts off the UV radiation below 310 nm, exposure time 72 h.

[4] = comparative accelerated aging test of pyrene derivatives in silica sol-gel layer; conditions: 0.5 mg/ml, 620 W/m^2, 24 h, black body 55° C, versus pyrenesulfonic, pyreneboronic, pyreneacetic
Experimental: A silica sol-gel solution as defined in example 1 is prepared.
At the same time, four aqueous solutions respectively comprising pyrenecarboxylic, pyrenesulfonic, pyreneboronic and pyreneacetic, at 0.5 mg/ml, with one molar equivalent of sodium hydroxide, are prepared.
A volume of each aqueous solution thus obtained is mixed with an equivalent volume of the sol-gel solution: each mixture obtained is subsequently deposited by “knife coating” on a microscope slide transparent to UV-A radiation.
After drying in ambient air, these slides are subjected to an accelerated aging test in a Suntest CPS chamber from Atlas.
The aging conditions are as follows: irradiance at 620 W/m^2, xenon arc lamp equipped with a “sheet glass” filter which cuts off the UV radiation below 310 nm, exposure time 24 h. The temperature for regulating the black body is 55° C.
FIG. 3 reports the absorption spectra of the different pyrene derivatives described above as a function of time.

[5] = stability toward solar irradiation (general statement); conditions: compared with conventional UV stabilizers / substituted benzotriazoles

Row | SMILES | UV/vis transmission properties of the coating before/after exposure [1] | UV/visible transmission properties of the coating before/after exposure [2] | color change of the sol-gel deposited layer after exposure ([3]; 5 mg/ml solution, xenon arc 550 W/m^2, 72 h) | degradation grade on the scale of the blues of the protected colored textile ([3]; scale of 8 levels, 1 most degraded, 8 least degraded, 550 W/m^2, 72 h, untreated reference grade 1) | stability over time of absorption peak under UV [4] | stability toward solar irradiation / radiation [5]
1 | c1cc2ccc3cccc4ccc(c1)c2c34 [pyrene] | very significantly degraded | – | – | – | – | –
2 | O=C(O)c1ccc2ccc3cccc4ccc1c2c34 [pyrene-1-carboxylic, pyrene-1-carboxylic acid] | – | retained | has not changed in color | 4-5 | best stability over time | equivalent to that of substituted benzotriazoles
